This assay deals with T1, human factor Xa (Homo sapiens, UniProt P00742).
T1 construct: released from the colourless chromogenic substrate by human factor Xa; purchased Roche
Briefly: Inhibition of factor Xa, enzyme-kinetic measurement with chromogenic substrate. The note with it: human factor Xa (Roche) 0.175 U/ml, substrate Chromozym X 200 μMol/l, pH 8.0, 37° C., 405 nm. The assay is classed as biochemical. How it is done:
Method: Enzyme-kinetic measurement with chromogenic substrate. The quantity of p-nitroaniline (pNA) released from the colourless chromogenic substrate by human factor Xa is determined photometrically at 405 nm. It is proportional to the activity of the enzyme used. The inhibition of the enzyme activity by the test substance (in relation to the solvent control) is determined at various concentrations of test substance and from this the IC50 is calculated, as the concentration which inhibits the factor Xa used by 50%.
Material: Tris(hydroxymethyl)-aminomethane buffer (100 mmol) and sodium chloride (150 mmol), pH 8.0
Factor Xa (Roche), spec. activity: 10 U/0.5 ml, final concentration: 0.175 U/ml for each reaction mixture
Substrate Chromozym X (Roche), final concentration: 200 μMol/l for each reaction mixture
Procedure: 10 μl of a 23.5-times concentrated starting solution of the test substance or solvent (control), 175 μl of tris(hydroxymethyl)-aminomethane buffer and 25 μl of a 1.65 U/ml Factor Xa working solution are incubated for 10 minutes at 37° C. After the addition of 25 μl of Chromozym X working solution ([…]) the sample is measured in a photometer (SpectraMax 250) at 405 nm for 150 seconds at 37° C.
1. Determining the maximum increase (deltaOD/minutes) over 3 measuring points.
2. Determining the % inhibition based on the solvent control.
3. Plotting a dosage/activity curve (% inhibition vs substance concentration).
4. Determining the IC50 by interpolating the X value (substance concentration) of the dosage/activity curve at Y=50% inhibition.

Molecules are shown by their SMILES.

T1 sequence (P00742 235-488 limits assumed): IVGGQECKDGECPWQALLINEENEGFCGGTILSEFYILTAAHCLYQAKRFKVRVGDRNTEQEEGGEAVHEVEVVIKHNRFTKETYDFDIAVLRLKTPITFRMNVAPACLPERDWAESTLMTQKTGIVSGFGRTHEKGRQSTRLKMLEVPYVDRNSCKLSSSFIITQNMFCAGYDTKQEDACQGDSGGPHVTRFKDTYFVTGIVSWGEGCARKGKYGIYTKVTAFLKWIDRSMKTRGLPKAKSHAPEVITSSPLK
T1 sequence (P00742 41-179 partner limits assumed): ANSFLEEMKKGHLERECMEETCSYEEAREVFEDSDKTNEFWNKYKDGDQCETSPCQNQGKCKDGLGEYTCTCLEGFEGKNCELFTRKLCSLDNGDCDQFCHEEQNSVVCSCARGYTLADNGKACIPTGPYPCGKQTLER

The term IC50 denotes the concentration that inhibits the measured activity by half. A low value points to higher potency. `Cc1cc(NC(=O)Cc2cc(C(=N)N)ccc2O)ccc1-c1ncnc2c1CCC2` [(3)] came in with an IC50 of 0.062 µM.

`Cc1nn(-c2ccc(C(=O)NCc3cc(C(=N)N)ccc3O)cc2C(F)(F)F)c2c1CCC2` [(4)] returned an IC50 of 0.015 µM.

In the case of `Cc1cc(NC(=O)Cc2cc(C(=N)N)ccc2O)ccc1-n1cnc2c1CCCC2` [(2)], 0.081 µM corresponded to half-maximal inhibition (IC50).

As to `CCOC(=O)CC(NC(=O)c1ccc(-n2cnc3c2CCCC3)c(C(F)(F)F)c1)c1cccc(C(=N)N)c1` (stereo not drawn) [(8)], the IC50 was found to be 0.028 µM.

On to `CCOC(=O)CC(NC(=O)c1ccc(-n2nc(CN)c3c2CCC3)c(C(F)(F)F)c1)c1cccc(C(=N)N)c1` (stereo not drawn) [(7)], for which the IC50 came to 0.0075 µM.

For the molecule `Cc1cc(NC(=O)Cc2cc(C(=N)N)ccc2O)ccc1-n1c(N2CCCC2)nc2ccccc21` [(1)], the IC50 amounted to 0.14 µM.

In turn, `COC(=O)c1nn(-c2ccc(C(=O)NCc3cc(C(=N)N)ccc3O)cc2C(F)(F)F)c2c1CCC2` [(9)] showed an IC50 of 0.024 µM.

Regarding `N=C(N)c1ccc(O)c(CNC(=O)c2ccc(-n3nc(CN)c4c3CCC4)c(C(F)(F)F)c2)c1` [(6)], the half-inhibitory concentration (IC50) was determined as 0.007 µM.

In turn, `CNC(=O)c1nn(-c2ccc(C(=O)NCc3cc(C(=N)N)ccc3O)cc2C(F)(F)F)c2c1CCC2` [(5)] returned an IC50 of 0.016 µM.
